Reference: US8815872B2, “Macrocyclics pyrimidines as aurora kinase inhibitors” (Merck Patent GmbH, priority 2008, dated 2014)

Columns and labels:
Experiment in all cases: Other kinases, single-concentration inhibition (Table 3)
Type in all cases: biochemical
ZAP-70(h) = molecular target: T1, ZAP-70(h) (Homo sapiens, UniProt P43403)
T1 construct: purchased Caliper Life Sciences
T1 sequence (P43403 1-619): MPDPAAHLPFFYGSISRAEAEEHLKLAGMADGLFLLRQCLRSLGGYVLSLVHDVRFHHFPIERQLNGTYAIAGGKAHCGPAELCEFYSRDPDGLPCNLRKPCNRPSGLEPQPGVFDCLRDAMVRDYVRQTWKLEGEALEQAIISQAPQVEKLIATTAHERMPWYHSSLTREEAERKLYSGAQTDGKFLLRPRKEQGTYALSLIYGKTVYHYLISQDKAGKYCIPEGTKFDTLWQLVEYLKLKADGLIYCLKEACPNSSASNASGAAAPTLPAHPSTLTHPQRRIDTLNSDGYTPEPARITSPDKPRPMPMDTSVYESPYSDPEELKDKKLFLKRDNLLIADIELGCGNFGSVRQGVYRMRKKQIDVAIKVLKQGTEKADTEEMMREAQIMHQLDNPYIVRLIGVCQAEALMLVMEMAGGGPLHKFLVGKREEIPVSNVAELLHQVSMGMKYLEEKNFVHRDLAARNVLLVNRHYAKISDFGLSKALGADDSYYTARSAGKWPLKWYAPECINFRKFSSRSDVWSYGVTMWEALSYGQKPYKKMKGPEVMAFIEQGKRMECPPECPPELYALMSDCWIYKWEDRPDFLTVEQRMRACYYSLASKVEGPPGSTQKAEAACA
In short: (§1)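 Single-point screen: fluorescent peptide plus ATP, 90 min at 25 °C, EDTA stop, mobility-shift separation; % inhibition vs controls.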

Abl(h) = molecular target: T2, Abl(h) (Homo sapiens, UniProt P00519)
T2 construct: purchased Caliper Life Sciences
In short: as §1

CDK2/cyclinE(h) = molecular target: T3, CDK2/cyclinE(h) (Homo sapiens, UniProt P24941)
T3 construct: purchased Caliper Life Sciences
In short: as §1

PKCα(h) = molecular target: T4, PKCα(h) (Homo sapiens, UniProt P17252)
T4 construct: purchased Caliper Life Sciences
In short: as §1

FAK(h) = molecular target: T5, FAK(h) (Homo sapiens, UniProt Q05397)
T5 construct: purchased Caliper Life Sciences
In short: as §1

MSK2(h) = molecular target: T6, MSK2(h) (Homo sapiens, UniProt O75676)
T6 construct: purchased Caliper Life Sciences
In short: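 The screen used frozen pre-plated kinases, each paired with its own fluorescent peptide substrate and ATP concentration. Compound was tested at a single concentration over a 90 min reaction at 25 °C. Phosphorylated product was quantified by capillary electrophoretic mobility shift.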

PDK1(h) = molecular target: T7, PDK1(h) (Homo sapiens, UniProt O15530)
T7 construct: purchased Caliper Life Sciences
T7 sequence (O15530 1-556): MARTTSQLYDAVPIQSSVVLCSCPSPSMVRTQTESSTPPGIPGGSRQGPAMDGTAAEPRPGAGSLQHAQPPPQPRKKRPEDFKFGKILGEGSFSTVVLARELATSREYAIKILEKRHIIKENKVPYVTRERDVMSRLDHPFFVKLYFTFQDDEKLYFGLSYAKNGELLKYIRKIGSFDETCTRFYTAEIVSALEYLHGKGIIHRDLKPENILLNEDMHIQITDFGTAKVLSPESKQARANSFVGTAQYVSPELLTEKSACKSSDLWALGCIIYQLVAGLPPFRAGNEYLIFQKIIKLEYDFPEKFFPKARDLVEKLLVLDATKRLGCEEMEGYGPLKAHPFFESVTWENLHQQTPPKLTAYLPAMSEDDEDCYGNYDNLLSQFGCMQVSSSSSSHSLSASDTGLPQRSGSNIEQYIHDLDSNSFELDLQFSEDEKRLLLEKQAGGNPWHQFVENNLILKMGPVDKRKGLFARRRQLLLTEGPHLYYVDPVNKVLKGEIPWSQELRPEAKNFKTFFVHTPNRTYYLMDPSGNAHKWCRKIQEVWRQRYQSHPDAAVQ
In short: as §1

FGFR4(h) = molecular target: T8, FGFR4(h) (Homo sapiens, UniProt P22455)
T8 construct: purchased Caliper Life Sciences
In short: as §1

Abl(T315I)(h) = molecular target: T9, Abl(T315I)(h) (Homo sapiens, UniProt P00519, T315I)
T9 construct: purchased Caliper Life Sciences
In short: as §1

Aurora-A(h) = molecular target: T10, Aurora-A(h) (Homo sapiens, UniProt O14965)
T10 construct: purchased Caliper Life Sciences
T10 sequence (O14965 1-403): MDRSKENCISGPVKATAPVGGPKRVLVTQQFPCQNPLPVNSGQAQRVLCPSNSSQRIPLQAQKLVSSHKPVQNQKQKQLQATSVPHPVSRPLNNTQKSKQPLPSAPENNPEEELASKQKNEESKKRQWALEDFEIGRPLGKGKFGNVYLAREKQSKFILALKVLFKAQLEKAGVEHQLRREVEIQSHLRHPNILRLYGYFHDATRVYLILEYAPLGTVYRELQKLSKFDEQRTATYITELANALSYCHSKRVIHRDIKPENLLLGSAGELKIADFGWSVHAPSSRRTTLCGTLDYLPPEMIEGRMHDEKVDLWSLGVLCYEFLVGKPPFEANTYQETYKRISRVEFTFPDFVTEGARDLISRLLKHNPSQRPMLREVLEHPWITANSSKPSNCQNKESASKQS
In short: as §1

T8 sequence (P22455 22-802): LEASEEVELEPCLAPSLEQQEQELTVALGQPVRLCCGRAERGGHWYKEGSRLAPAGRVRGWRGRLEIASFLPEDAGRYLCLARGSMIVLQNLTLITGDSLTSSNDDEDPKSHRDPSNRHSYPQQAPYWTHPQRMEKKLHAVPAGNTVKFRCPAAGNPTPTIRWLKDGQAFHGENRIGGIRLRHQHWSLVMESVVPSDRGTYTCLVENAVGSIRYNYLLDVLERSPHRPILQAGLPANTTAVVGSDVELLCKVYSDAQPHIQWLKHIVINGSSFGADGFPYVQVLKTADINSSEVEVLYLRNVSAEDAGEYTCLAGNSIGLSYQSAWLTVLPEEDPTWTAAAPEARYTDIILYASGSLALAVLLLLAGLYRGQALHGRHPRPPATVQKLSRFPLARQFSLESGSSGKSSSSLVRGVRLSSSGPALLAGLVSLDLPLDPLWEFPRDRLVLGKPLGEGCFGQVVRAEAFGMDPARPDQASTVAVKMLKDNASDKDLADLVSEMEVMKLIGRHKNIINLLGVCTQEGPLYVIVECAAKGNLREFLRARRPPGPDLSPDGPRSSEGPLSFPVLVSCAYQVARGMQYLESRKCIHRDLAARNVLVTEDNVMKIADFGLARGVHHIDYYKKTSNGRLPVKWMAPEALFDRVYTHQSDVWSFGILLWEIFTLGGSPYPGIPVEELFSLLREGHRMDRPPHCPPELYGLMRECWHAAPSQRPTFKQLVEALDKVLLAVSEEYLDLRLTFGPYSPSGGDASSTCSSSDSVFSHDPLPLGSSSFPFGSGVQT
T6 sequence (O75676 whole entry): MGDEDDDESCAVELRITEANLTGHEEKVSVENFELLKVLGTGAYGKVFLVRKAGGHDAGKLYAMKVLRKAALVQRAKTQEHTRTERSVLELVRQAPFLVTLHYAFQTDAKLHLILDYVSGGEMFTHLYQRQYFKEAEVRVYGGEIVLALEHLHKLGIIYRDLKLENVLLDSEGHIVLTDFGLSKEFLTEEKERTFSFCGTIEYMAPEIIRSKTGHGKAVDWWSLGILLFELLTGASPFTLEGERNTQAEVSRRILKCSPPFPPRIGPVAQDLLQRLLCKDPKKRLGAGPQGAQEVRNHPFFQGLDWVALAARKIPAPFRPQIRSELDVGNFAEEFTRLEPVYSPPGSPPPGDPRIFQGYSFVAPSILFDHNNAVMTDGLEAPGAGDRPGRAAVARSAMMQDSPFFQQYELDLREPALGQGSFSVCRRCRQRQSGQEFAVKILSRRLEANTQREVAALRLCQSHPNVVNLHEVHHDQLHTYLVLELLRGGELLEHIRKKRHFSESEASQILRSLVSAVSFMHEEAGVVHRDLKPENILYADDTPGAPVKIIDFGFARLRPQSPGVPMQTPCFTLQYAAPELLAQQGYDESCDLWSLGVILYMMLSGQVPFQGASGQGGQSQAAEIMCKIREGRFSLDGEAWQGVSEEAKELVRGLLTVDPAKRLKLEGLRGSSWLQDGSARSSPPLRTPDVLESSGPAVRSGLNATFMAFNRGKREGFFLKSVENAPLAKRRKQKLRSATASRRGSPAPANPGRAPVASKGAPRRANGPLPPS
T5 sequence (Q05397 whole entry): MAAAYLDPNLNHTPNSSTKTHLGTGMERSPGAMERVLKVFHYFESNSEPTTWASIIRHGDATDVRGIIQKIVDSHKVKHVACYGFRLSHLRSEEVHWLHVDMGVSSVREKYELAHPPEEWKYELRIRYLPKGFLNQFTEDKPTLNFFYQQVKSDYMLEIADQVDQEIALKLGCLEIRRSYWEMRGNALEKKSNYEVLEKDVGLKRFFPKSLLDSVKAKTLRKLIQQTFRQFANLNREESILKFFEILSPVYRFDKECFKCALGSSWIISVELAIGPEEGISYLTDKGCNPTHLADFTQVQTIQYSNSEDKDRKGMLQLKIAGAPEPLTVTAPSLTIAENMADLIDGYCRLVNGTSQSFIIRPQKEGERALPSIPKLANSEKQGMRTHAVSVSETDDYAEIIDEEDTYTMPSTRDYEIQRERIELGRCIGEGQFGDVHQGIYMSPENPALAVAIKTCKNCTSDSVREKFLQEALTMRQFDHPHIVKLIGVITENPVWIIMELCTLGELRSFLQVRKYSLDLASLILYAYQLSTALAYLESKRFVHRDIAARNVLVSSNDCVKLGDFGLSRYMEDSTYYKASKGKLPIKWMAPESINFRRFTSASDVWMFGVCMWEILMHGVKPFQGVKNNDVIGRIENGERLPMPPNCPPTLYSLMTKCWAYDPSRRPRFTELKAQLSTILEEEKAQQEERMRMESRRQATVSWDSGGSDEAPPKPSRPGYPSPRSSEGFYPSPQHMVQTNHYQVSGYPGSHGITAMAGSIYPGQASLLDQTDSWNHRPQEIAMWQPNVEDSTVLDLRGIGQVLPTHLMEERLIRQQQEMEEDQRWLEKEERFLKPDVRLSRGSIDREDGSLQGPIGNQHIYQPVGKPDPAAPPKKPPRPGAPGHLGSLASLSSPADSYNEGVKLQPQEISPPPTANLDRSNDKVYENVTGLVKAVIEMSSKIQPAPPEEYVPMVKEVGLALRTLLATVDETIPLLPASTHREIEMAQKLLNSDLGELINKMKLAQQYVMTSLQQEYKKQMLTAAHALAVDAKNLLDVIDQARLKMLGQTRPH

SMILES	% inhibition ZAP-70(h) (ZAP-70(h); 10 μM)	inhibition at 10 µM (Abl(h); 10 μM)	% inhibition CDK2/cyclinE(h) (CDK2/cyclinE(h); 10 μM)	% inhibition PKCα(h) (PKCα(h); 10 μM)	% inhibition FAK(h) (FAK(h); 10 μM)	% inhibition MSK2(h) (MSK2(h); 10 μM)	% inhibition PDK1(h) (PDK1(h); 10 μM)	% inhibition FGFR4(h) (FGFR4(h); 10 μM)	% inhibition Abl(T315I)(h) (Abl(T315I)(h); 10 μM)	% inhibition Aurora-A(h) (Aurora-A(h); 10 μM)	% inhibition ZAP-70(h) (ZAP-70(h); 1 μM)	inhibition at 1 µM (Abl(h))	% inhibition CDK2/cyclinE(h) (CDK2/cyclinE(h); 1 μM)	% inhibition PKCα(h) (PKCα(h); 1 μM)	% inhibition FAK(h) (FAK(h); 1 μM)	% inhibition MSK2(h) (MSK2(h); 1 μM)	% inhibition PDK1(h) (PDK1(h); 1 μM)	% inhibition FGFR4(h) (FGFR4(h); 1 μM)	% inhibition Abl(T315I)(h) (Abl(T315I)(h); 1 μM)	% inhibition Aurora-A(h) (Aurora-A(h); 1 μM)
O=C(O)[C@H]1[C@H]2C[C@H]3[C@H]1Nc1nc(ncc1F)Nc1cccc(c1)OCCS[C@@H]3C2 [Example 21]	94%	44%	89%	91%	7%	75%	78%	81%	38%	2%	–	–	–	–	–	–	–	–	–	–
CC[C@@H]1C[C@@H]2/C=C\COc3cccc(c3)Nc3ncc(F)c(n3)N[C@H]2[C@H]1C(N)=O (single isomer, unassigned) [Example 6]	–	–	–	–	–	–	–	–	–	–	125%	99%	107%	90%	81%	60%	90%	96%	89%	3%
NC(=O)[C@H]1[C@H]2C[C@H]3[C@H]1Nc1nc(ncc1F)Nc1cccc(c1)NC(=O)CS[C@@H]3C2 [Example 27]	–	–	–	–	–	–	–	–	–	–	125%	3%	60%	102%	41%	65%	86%	96%	1%	1%
C=C[C@@H]1C[C@@H]2/C=C/COc3cccc(c3)Nc3ncc(F)c(n3)N[C@H]2[C@H]1C(N)=O (single isomer, unassigned) [Example 3]	–	–	–	–	–	–	–	–	–	–	109%	105%	114%	70%	86%	136%	102%	122%	92%	11%
N#Cc1ccc2cc1NC(=O)CS[C@@H]1C[C@@H]3C[C@H]1[C@@H](Nc1nc(ncc1F)N2)[C@H]3C(N)=O [Example 26]	–	–	–	–	–	–	–	–	–	–	112%	-1%	15%	81%	35%	2%	88%	53%	2%	0%
NC(=O)[C@H]1[C@H]2C[C@H]3[C@H]1Nc1nc(ncc1F)Nc1cccc(c1)C(=O)CS[C@@H]3C2 [Example 11]	–	–	–	–	–	–	–	–	–	–	124%	92%	92%	94%	77%	89%	98%	100%	95%	95%
CN1CCN(c2ccc3cc2NC(=O)CS[C@@H]2C[C@@H]4C[C@H]2[C@@H](Nc2nc(ncc2F)N3)[C@H]4C(N)=O)CC1 [Example 24]	–	–	–	–	–	–	–	–	–	–	112%	-4%	100%	103%	30%	81%	108%	50%	0%	2%
CC[C@@H]1C[C@@H]2CCCOc3cccc(c3)Nc3ncc(F)c(n3)N[C@H]2[C@H]1C(N)=O (single isomer, unassigned) [Example 5]	–	–	–	–	–	–	–	–	–	–	122%	105%	109%	84%	91%	56%	92%	94%	103%	7%
CN1CCN(c2ccc3cc2OCCS[C@@H]2C[C@@H]4C[C@H]2[C@@H](Nc2nc(ncc2F)N3)[C@H]4C(N)=O)CC1 [Example 22]	–	–	–	–	–	–	–	–	–	–	–	-4%	133%	100%	30%	60%	112%	87%	13%	5%
NC(=O)[C@H]1[C@H]2C[C@H]3[C@H]1Nc1nc(ncc1F)Nc1cccc(c1)OCCS[C@@H]3C2 [Example 20]	–	–	–	–	–	–	–	–	–	–	122%	79%	69%	107%	11%	48%	80%	102%	34%	4%
NC(=O)[C@H]1[C@H]2C[C@H]3[C@H]1Nc1nc(ncc1F)Nc1cccc(c1)CSS[C@@H]3C2 [Example 10]	–	–	–	–	–	–	–	–	–	–	118%	101%	23%	90%	3%	3%	96%	128%	47%	1%
